For data set [1], the target named is T1, CAI (Homo sapiens, UniProt P00915).
T1 construct: made in house; host or cells: E. coli
The data set can be described thus: biochemical. To be noted: for Intrinsic Gibbs energy change (ΔGint), CAI: 37 °C, calculated (Equation 5); for Kd: FTSA, pH 7.0, 37 °C, read-out: Observed Dissociation Constant (Kd_obs), CAI. It is filed as binding.

Data set [2] has as its target T2, CAII (Homo sapiens, UniProt P00918).
T2 construct: made in house; host or cells: E. coli
The data set can be described thus: biochemical. It is filed as binding. Conditions: for Intrinsic Gibbs energy change (ΔGint), CAII: 37 °C, calculated (Equation 5); for Kd: FTSA, pH 7.0, 37 °C, read-out: Observed Dissociation Constant (Kd_obs), CAII.

The next data set addresses T3, CAIII (Homo sapiens, UniProt P07451).
T3 construct: made in house; host or cells: E. coli
The data set can be described thus: Fluorescent thermal shift assay (FTSA), CAIII. It is filed as binding. To be noted: FTSA, pH 7.0, 37 °C; read-out: Observed Dissociation Constant (Kd_obs), CAIII.

For another data set, the target named is T4, CAIV (Homo sapiens, UniProt P22748).
T4 construct: made in house; host or cells: E. coli
T4 sequence (P22748 19-312): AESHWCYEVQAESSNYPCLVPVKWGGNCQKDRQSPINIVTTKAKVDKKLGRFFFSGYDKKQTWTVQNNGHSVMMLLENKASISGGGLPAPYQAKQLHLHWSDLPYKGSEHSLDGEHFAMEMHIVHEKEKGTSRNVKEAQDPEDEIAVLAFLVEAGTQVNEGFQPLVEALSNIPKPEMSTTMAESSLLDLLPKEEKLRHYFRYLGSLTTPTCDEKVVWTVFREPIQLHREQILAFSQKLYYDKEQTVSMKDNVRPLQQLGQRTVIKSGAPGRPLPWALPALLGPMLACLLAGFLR
The data set can be described thus: Fluorescent thermal shift assay (FTSA), CAIV.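 For all read-outs here: recombinant human enzyme, thermal denaturation followed by ANS fluorescence, melting temperature versus ligand concentration fitted for Kd_obs, intrinsic value corrected for deprotonated sulfonamide and Zn-bound water fractions.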 To be noted: for Intrinsic Gibbs energy change (ΔGint), CAIV: 37 °C, calculated (Equation 5); for Kd: FTSA, pH 7.0, 37 °C, read-out: Observed Dissociation Constant (Kd_obs), CAIV. It is filed as binding.

The next data set has as its target T5, CAVA (Homo sapiens, UniProt P35218).
T5 construct: made in house; host or cells: E. coli
The data set can be described thus: Fluorescent thermal shift assay (FTSA), CAVA. It is filed as binding. Conditions: for Kd: FTSA.

Data set [3] deals with T6, CAVB (Homo sapiens, UniProt Q9Y2D0).
T6 construct: made in house; host or cells: E. coli
T6 sequence (Q9Y2D0 34-317): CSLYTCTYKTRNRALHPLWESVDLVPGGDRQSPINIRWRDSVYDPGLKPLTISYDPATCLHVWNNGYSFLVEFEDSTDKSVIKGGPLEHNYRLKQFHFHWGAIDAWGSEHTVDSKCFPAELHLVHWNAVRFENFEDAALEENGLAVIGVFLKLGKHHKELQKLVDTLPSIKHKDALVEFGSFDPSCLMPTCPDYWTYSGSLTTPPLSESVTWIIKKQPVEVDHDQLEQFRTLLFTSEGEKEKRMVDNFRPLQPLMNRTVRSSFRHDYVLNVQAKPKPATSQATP
The data set can be described thus: Fluorescent thermal shift assay (FTSA), CAVB. It is filed as binding. To be noted: for Intrinsic Gibbs energy change (ΔGint), CAVB: 37 °C, calculated (Equation 5); for Kd: FTSA, pH 7.0, 37 °C, read-out: Observed Dissociation Constant (Kd_obs), CAVB.
Description: (§1) Human CA isozymes were expressed in E. coli (CAI, II, III, IV, VA, VB, VII, XII, XIII, XIV) or mammalian cells (CAVI and CAIX), chromatographically purified following the published protocols [47], and stored at −80 °C. The protein concentration was determined by UV absorption at 280 nm using Beer–Lambert law.
(§2) The QIAGEN Rotor-Gene Q was used to carry out the experiments, with a blue channel used for excitation (365 nm) and detection (460 nm). FTSA in this case relies on an extrinsic probe, 8-anilino-1-naphthalenesulfonate (ANS), to detect the fluorescence increase during protein denaturation, from which protein melting temperature (Tm) can be determined. […] The observed affinity of ligands for CAs was determined by plotting the Tm as a function of ligand concentration and then fitting a curve as described previously [48]. […] Samples were heated from 25 °C to 99 °C at the speed of 1 °C/min.
(§3) The intrinsic thermodynamic parameters were calculated as described in [40]. The intrinsic reaction of inhibitor binding to CA is shown in Equation (1). […] It is known that CA proteins bind sulfonamides only when water molecules are coordinated to the Zn(II) ion, and sulfonamides only bind to CA proteins when their amino group is deprotonated (confirmed by neutron crystallography [53, 54, 55]):(1) CA Zn^II−H2O+RSO2NH^−⇄ CA Zn^II−NH SO2R+H2O
(§4) When calculating Kd_int values, these protein and ligand fractions from Equation (1) have to be accounted for (Equations (2) and (3)). The intrinsic dissociation constant is calculated by multiplying Kd_obs value by the corresponding fractions of protein and ligand (Equation (4)). (2) fRSO2NH^−=10^pH−pKa_RSO2NH2/1+10^pH−pKa_RSO2NH2 (3) fCAZnH2O=1−10^pH−pKa_CAZnH2O/1+10^pH−pKa_CAZnH2O (4) Kd_int=Kd_obs×fRSO2NH^−×fCAZnH2O (5) ΔGint0=RTlnKd_int
(§5) The intrinsic standard Gibbs energy changes upon binding were calculated using Equation (5). Here, R—universal ideal gas constant (8.3144 J/mol·K), T—absolute temperature (310.15 K).

The target in the next data set is T7, CAVI (Homo sapiens, UniProt P23280).
T7 construct: made in house
T7 sequence (P23280 21-290 limits assumed): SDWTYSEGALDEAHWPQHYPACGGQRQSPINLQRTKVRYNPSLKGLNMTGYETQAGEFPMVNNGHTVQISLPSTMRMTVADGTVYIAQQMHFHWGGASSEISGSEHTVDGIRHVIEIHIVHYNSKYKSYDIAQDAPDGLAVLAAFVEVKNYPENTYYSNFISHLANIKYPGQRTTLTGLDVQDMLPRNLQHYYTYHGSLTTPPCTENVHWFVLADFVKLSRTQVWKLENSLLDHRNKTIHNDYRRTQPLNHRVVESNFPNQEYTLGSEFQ
The data set can be described thus: Fluorescent thermal shift assay (FTSA), CAVI.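 For all read-outs here: human CAVI expressed in mammalian cells, ANS fluorescence tracked during thermal unfolding, melting temperature fitted against ligand concentration, intrinsic values corrected for deprotonated sulfonamide and Zn-bound water fractions.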 It is filed as binding. To be noted: for Intrinsic Gibbs energy change (ΔGint), CAVI: 37 °C, calculated (Equation 5); for Kd: FTSA, pH 7.0, 37 °C, read-out: Observed Dissociation Constant (Kd_obs), CAVI.

A further data set addresses T8, CAVII (Homo sapiens, UniProt P43166).
T8 construct: made in house; host or cells: E. coli
The data set can be described thus: Fluorescent thermal shift assay (FTSA), CAVII. It is filed as binding. To be noted: for Intrinsic Gibbs energy change (ΔGint), CAVII: 37 °C, calculated (Equation 5); for Kd: FTSA, pH 7.0, 37 °C, read-out: Observed Dissociation Constant (Kd_obs), CAVII.

Data set [4] addresses T9, CAIX (Homo sapiens, UniProt Q16790).
T9 construct: made in house
The data set can be described thus: biochemical. It is filed as binding. To be noted: for Intrinsic Gibbs energy change (ΔGint), CAIX: 37 °C, calculated (Equation 5); for Kd: FTSA, pH 7.0, 37 °C, read-out: Observed Dissociation Constant (Kd_obs), CAIX.

In data set [5] the target is T10, CAXII (Homo sapiens, UniProt O43570).
T10 construct: made in house; host or cells: E. coli
T10 sequence (O43570 25-354): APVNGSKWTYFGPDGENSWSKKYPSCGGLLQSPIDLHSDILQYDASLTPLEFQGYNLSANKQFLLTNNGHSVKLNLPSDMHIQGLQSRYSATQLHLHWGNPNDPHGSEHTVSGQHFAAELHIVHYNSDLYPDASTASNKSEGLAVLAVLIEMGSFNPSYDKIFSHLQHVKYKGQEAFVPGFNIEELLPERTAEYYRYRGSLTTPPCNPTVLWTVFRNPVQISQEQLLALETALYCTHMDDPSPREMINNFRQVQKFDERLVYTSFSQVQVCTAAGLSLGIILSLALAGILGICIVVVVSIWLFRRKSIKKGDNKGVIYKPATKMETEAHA
The data set can be described thus: biochemical. It is filed as binding. Conditions: for Intrinsic Gibbs energy change (ΔGint), CAXII: 37 °C, calculated (Equation 5); for Kd: FTSA, pH 7.0, 37 °C, read-out: Observed Dissociation Constant (Kd_obs), CAXII.

A further data set addresses T11, CAXIV (Homo sapiens, UniProt Q9ULX7).
T11 construct: made in house; host or cells: E. coli
The data set can be described thus: Fluorescent thermal shift assay (FTSA), CAXIV.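 For all read-outs here: recombinant human CA XIV from E. coli, ANS-based thermal shift: Kd_obs fitted from melting temperature versus ligand concentration, ΔGint from Kd_obs corrected for deprotonated sulfonamide and Zn-water fractions.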 To be noted: for Intrinsic Gibbs energy change (ΔGint), CAXIV: 37 °C, calculated (Equation 5); for Kd: FTSA, pH 7.0, 37 °C, read-out: Observed Dissociation Constant (Kd_obs), CAXIV. It is filed as binding.

Data set [6] deals with T2, CAII. The data set can be described thus: Isothermal titration calorimetry (ITC), CAII. It is filed as binding. Conditions: pH 7.0, 37 °C, read-out: Observed Dissociation Constant (Kd_obs), CAII, ITC data in brackets. (In general: Isothermal titration calorimetry measures the heat released or taken up as one component is titrated into another.)
Data set [7] can be described thus: Determination of compound sulfonamide group pKa (UV-Vis spectra at different pH). It is filed as physicochemical. To be noted: universal buffer; spectrophotometric, 37 °C; read-out: Sulfonamide pKa. As for the experimental part: To calculate the intrinsic thermodynamic parameters of compound binding to CA isozymes, the pKa values of the sulfonamide group and the water molecule bound to the Zn(II) ion at the active site of CA proteins had to be determined. The pKa values for CA isozyme-bound water molecules were taken from, CAI—8.1; CAII—6.9; CAIII—6.5; CAIV—6.6; CAVA—6.7; CAVB—7.0; CAVI—6.0; CAVII—6.8; CAIX—6.6; CAXII—6.8; CAXIII—8.0; CAXIV—6.1. […] The pKa values were calculated as described previously in [28, 52] by normalizing the absorbance, plotting it as a function of pH, then fitting to the Henderson–Hasselbalch equation using the least square method (Figure S105).
Since the pKa values were only able to be measured for compound group 26–36, due to universal buffer pH limitations, intrinsic thermodynamic parameters were not calculated for compounds 2(a,b)–25(a,b), only for compounds 26–36 using experimentally obtained pKa values when possible and using the average pKa value mentioned above for compounds not measured.

In data set [8] the target is T12, CAXIII (Homo sapiens, UniProt Q8N1Q1). Conditions: 37 °C; calculated (Equation 5).
T12 sequence (Q8N1Q1 whole entry): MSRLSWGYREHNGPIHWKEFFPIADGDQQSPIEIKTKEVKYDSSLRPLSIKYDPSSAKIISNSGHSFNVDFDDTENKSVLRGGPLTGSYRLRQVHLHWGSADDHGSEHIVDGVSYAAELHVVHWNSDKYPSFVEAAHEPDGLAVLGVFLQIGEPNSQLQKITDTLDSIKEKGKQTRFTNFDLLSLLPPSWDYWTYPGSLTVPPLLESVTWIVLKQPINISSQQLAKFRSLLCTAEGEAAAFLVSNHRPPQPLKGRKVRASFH
In data set [9] the target is T12, CAXIII. The data set can be described thus: biochemical. To be noted: Observed Dissociation Constant (Kd_obs), FTSA, pH 7.0, 37 °C.
For data set [10], the target named is T6, CAVB. The data set can be described thus: Isothermal titration calorimetry (ITC), CAVB. It is filed as binding. To be noted: pH 7.0, 37 °C.
Data set [11] addresses T1, CAI. To be noted: FTSA, pH 7.0, 37 °C; taken from previous publication; read-out: Observed Dissociation Constant (Kd_obs), CAI; cited from earlier work.
The target of data set [12] is T2, CAII. Conditions: FTSA, pH 7.0, 37 °C; taken from previous publication; read-out: Observed Dissociation Constant (Kd_obs), CAII; cited from earlier work.
Data set [13] has as its target T9, CAIX. Conditions: FTSA, pH 7.0, 37 °C; taken from previous publication; read-out: Observed Dissociation Constant (Kd_obs), CAIX; cited from earlier work.
For data set [14], the target named is T10, CAXII. Conditions: FTSA, pH 7.0, 37 °C; taken from previous publication; read-out: Observed Dissociation Constant (Kd_obs), CAXII; cited from earlier work.
Data set [15] addresses T12, CAXIII. Conditions: read-out: Observed Dissociation Constant (Kd_obs), CAXIII; FTSA, pH 7.0, 37 °C; taken from previous publication; cited from earlier work.
Where [16] appears, read: pH 7.0, 37 °C, read-out: Observed Dissociation Constant (Kd_obs), CAVA.

Like-named read-outs stand apart in the source and are kept apart here. Some results are limits rather than exact numbers.
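Throughout, for Intrinsic Gibbs energy change (ΔGint), CAII: recombinant human CAII, thermal shift with ANS dye fluorescence, Kd_obs from fitting melting temperature versus ligand concentration, intrinsic values corrected for deprotonated sulfonamide and Zn-bound water fractions.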
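Throughout, for Intrinsic Gibbs energy change (ΔGint), CAXIII: recombinant human CAXIII melting temperature tracked by ANS fluorescence in thermal shift assay, Tm fitted against ligand concentration, intrinsic value corrects Kd for deprotonated sulfonamide and Zn-bound water fractions.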

T3 sequence (P07451 whole entry): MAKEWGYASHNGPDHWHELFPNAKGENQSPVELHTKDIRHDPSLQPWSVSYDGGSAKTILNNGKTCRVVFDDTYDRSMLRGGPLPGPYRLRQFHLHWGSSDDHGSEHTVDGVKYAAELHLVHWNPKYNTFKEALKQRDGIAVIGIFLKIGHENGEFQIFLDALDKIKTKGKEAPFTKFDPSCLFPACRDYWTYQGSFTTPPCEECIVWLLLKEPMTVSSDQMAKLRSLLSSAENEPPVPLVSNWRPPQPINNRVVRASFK
T5 sequence (P35218 39-305): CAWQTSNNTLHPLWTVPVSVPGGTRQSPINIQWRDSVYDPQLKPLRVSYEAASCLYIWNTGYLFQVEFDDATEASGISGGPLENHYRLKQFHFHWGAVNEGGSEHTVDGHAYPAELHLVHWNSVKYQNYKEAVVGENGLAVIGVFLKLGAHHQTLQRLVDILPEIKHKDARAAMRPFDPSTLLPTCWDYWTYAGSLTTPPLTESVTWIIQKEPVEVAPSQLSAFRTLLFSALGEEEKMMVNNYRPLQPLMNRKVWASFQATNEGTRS
T1 sequence (P00915 whole entry): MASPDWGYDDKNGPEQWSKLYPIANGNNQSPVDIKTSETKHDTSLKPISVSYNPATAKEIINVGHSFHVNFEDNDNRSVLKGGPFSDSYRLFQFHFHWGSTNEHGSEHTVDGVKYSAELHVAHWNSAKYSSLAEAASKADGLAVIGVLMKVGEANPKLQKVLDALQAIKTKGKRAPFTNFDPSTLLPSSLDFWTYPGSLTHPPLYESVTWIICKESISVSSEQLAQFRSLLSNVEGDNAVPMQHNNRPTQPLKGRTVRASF
T11 sequence (Q9ULX7 16-337): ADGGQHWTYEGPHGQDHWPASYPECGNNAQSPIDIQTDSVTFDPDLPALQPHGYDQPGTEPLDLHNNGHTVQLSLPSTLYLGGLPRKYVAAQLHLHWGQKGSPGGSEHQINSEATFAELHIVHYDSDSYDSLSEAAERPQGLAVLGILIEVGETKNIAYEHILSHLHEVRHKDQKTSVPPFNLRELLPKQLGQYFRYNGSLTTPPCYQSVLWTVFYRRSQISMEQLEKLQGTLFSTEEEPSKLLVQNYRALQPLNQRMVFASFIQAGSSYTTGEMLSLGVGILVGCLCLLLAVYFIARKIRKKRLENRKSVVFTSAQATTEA
T8 sequence (P43166 whole entry): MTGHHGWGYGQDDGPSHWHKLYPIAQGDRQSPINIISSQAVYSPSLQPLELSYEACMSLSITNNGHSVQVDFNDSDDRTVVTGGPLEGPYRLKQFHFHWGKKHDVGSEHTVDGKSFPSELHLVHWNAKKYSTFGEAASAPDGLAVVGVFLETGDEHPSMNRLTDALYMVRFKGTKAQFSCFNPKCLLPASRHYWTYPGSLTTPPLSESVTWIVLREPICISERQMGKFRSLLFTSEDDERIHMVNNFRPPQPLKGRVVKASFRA
Description for CAIV: as §1, §2, §3, §4, §5
Description for CAVA: as §1, §2, §3, §4, §5
Description for CAVII: as §1, §2, §3, §4, §5
Description for CAXIV: as §1, §2, §3, §4, §5

On to `COC(=O)CCN(c1ccc(S(N)(=O)=O)cc1)c1nc(C)cs1` [Compound 28, Methyl 3-((4-Methylthiazol-2-yl)(4-sulfamoylphenyl)amino)propanoate], for which the melting point (commonly the temperature of the solid-liquid transition) lay within 72 to 73 °C. At CAI [1], the “Intrinsic Gibbs energy change (ΔGint), CAI” value is -15 kcal/mol and the Kd stood at 0.037 µM. Also, on CAII [2], the “Intrinsic Gibbs energy change (ΔGint), CAII” value is -15.3 kcal/mol and the Kd was 0.045 µM. For the same molecule, at CAIII, the Kd is not below 200 µM. Also, at CAIV, the “Intrinsic Gibbs energy change (ΔGint), CAIV” value was -13.6 kcal/mol and the Kd is 1.1 µM. Besides, the “Intrinsic Gibbs energy change (ΔGint), CAVA” value at CAVA (37 °C, calculated (Equation 5)) is -11.2 kcal/mol. Besides, the Kd at CAVA (200 µM the weakest detectable Kd_obs, read-out: Kd_obs, CAVA) was found to be 50 µM. Moreover, at CAVB [3], the “Intrinsic Gibbs energy change (ΔGint), CAVB” value was -15.2 kcal/mol and the Kd is 0.046 µM. Moreover, on CAVI, the “Intrinsic Gibbs energy change (ΔGint), CAVI” value is -13.2 kcal/mol and the Kd turned out to be 7.1 µM. Moreover, on CAVII, the “Intrinsic Gibbs energy change (ΔGint), CAVII” value is -15.1 kcal/mol and the Kd worked out at 0.077 µM. At CAIX [4], the “Intrinsic Gibbs energy change (ΔGint), CAIX” value was -15.8 kcal/mol and the Kd was found to be 0.033 µM. For the same molecule, at CAXII [5], the “Intrinsic Gibbs energy change (ΔGint), CAXII” value is -14.3 kcal/mol and the Kd turned out to be 0.25 µM. Also, on CAXIV, the “Intrinsic Gibbs energy change (ΔGint), CAXIV” value was -16.4 kcal/mol and the Kd is 0.029 µM. Besides, at CAII [6], the Kd was 0.059 µM. For the same molecule, in [7], the pKa (in general, the pH at which an ionisable group is half protonated) is 10.1. Moreover, the “Intrinsic Gibbs energy change (ΔGint), CAXIII” value on CAXIII [8] was -13.8 kcal/mol. The same molecule showed a Kd at CAXIII [9] of 0.25 µM.
As for `CCOC(=O)c1sc(N(CCC(=O)O)c2ccc(S(N)(=O)=O)cc2)nc1C` [Compound 31, 3-((5-(Ethoxycarbonyl)-4-methylthiazol-2-yl)(4-sulfamoylphenyl)amino)propanoic acid], the melting point fell in the range of 221 to 222 °C. Moreover, on CAI [1], the “Intrinsic Gibbs energy change (ΔGint), CAI” value was -12.5 kcal/mol and the Kd was found to be 2 µM. For the same molecule, at CAII [2], the “Intrinsic Gibbs energy change (ΔGint), CAII” value was -13.5 kcal/mol and the Kd was determined as 0.91 µM. Also, the Kd at CAIII was not below 200 µM. Besides, at CAIV, the “Intrinsic Gibbs energy change (ΔGint), CAIV” value is -12.5 kcal/mol and the Kd was 6.7 µM. Further, on CAVA (setting [16]), the Kd was not below 200 µM. Further, at CAVB [3], the “Intrinsic Gibbs energy change (ΔGint), CAVB” value was -11.5 kcal/mol and the Kd was 20 µM. In addition, on CAVI, the “Intrinsic Gibbs energy change (ΔGint), CAVI” value is -12.4 kcal/mol and the Kd turned out to be 24 µM. At CAVII, the “Intrinsic Gibbs energy change (ΔGint), CAVII” value is -13.1 kcal/mol and the Kd amounted to 1.7 µM. Besides, on CAIX [4], the “Intrinsic Gibbs energy change (ΔGint), CAIX” value was -14.3 kcal/mol and the Kd was determined as 0.36 µM. Besides, on CAXII [5], the “Intrinsic Gibbs energy change (ΔGint), CAXII” value is -12.6 kcal/mol and the Kd came out at 3.8 µM. In addition, on CAXIV, the “Intrinsic Gibbs energy change (ΔGint), CAXIV” value is -13.8 kcal/mol and the Kd came out at 2 µM. For the same molecule, the Kd on CAII [6] turned out to be 0.86 µM. The pKa in data set [7] worked out at 10.1. In addition, the “Intrinsic Gibbs energy change (ΔGint), CAXIII” value on CAXIII [8] was -13.4 kcal/mol. The molecule also had a Kd on CAXIII [9] of 0.45 µM.
On to `CCOC(=O)c1sc(N(CCC(=O)OC)c2ccc(S(N)(=O)=O)cc2)nc1C` [Compound 32, Ethyl 2-((3-Methoxy-3-oxopropyl)(4-sulfamoylphenyl)amino)-4-methylthiazole-5-carboxylate], for which the melting point fell in the range of 140 to 141 °C. For the same molecule, at CAI [1], the “Intrinsic Gibbs energy change (ΔGint), CAI” value is -12.5 kcal/mol and the Kd turned out to be 0.83 µM. On CAII [2], the “Intrinsic Gibbs energy change (ΔGint), CAII” value is -14.6 kcal/mol and the Kd is 0.053 µM. Besides, at CAIII, the Kd is not below 200 µM. Further, on CAIV, the “Intrinsic Gibbs energy change (ΔGint), CAIV” value was -12.7 kcal/mol and the Kd turned out to be 2 µM. The Kd at CAVA (setting [16]) is not below 200 µM. Also, at CAVB [3], the “Intrinsic Gibbs energy change (ΔGint), CAVB” value was -14.9 kcal/mol and the Kd is 0.03 µM. At CAVI, the “Intrinsic Gibbs energy change (ΔGint), CAVI” value is -12.4 kcal/mol and the Kd was 10 µM. For the same molecule, at CAVII, the “Intrinsic Gibbs energy change (ΔGint), CAVII” value is -14.2 kcal/mol and the Kd came to 0.13 µM. On CAIX [4], the “Intrinsic Gibbs energy change (ΔGint), CAIX” value was -14.1 kcal/mol and the Kd is 0.19 µM. On CAXII [5], the “Intrinsic Gibbs energy change (ΔGint), CAXII” value was -11.7 kcal/mol and the Kd is 7.7 µM. On CAXIV, the “Intrinsic Gibbs energy change (ΔGint), CAXIV” value is -13.8 kcal/mol and the Kd worked out at 0.77 µM. Further, the “ΔHobs, CAVB” value on CAVB [10] (50 mM sodium phosphate buffer, 100 mM NaCl) was -9.6 kcal/mol. The Kd on CAVB [10] (read-out: Observed Dissociation Constant (Kd_obs), CAVB, ITC data in brackets) amounted to 0.041 µM. The pKa in [7] was 9.7. Moreover, the “Intrinsic Gibbs energy change (ΔGint), CAXIII” value at CAXIII [8] was -13.1 kcal/mol. Further, the Kd on CAXIII [9] worked out at 0.33 µM.
In the case of `NS(=O)(=O)c1ccc(N(CCC(=O)O)c2nc(-c3ccc(Cl)cc3)cs2)cc1` [Compound 35], the Kd was 0.025 µM at CAI [11]; 0.1 µM at CAII [12]; 0.56 µM at CAIX [13]; 0.2 µM at CAXII [14]; 0.53 µM at CAXIII [15].
